Test system: L. monocytogenes
Test: Microbial kill on L. monocytogenes inoculated lettuce in pouches
Assay type: cell-based
Settings: 5 days post inoculation and packaging
Text: To verify its efficacy against pathogenic bacteria, pouch samples were sent to Institute of Food Safety and Health (IFSH) for a microbial study where they were filled with 30 grams of lettuce that was inoculated with the L. monocytogenes with an initial count of 7.6E+06 CFU/g. The pouches were the same structure and size as Produce Packaging Example 1. The pouches were exposed to 3 s or 5 s of 254 nm UV radiation and analyzed for the microbial kill at 1 and 5 days. […] The pouches containing the ClO2 additive were either pre humidified to 80% RH or left unconditioned. The moisture required for the chlorine dioxide production in the dry samples came from the lettuce. It was observed that chlorine dioxide was able to attain 4-5 log kill in 5 days post inoculation and packaging.

**Q.** Which “log kill of L. monocytogenes” value does the source give for `[O][Cl+][O-]` [chlorine dioxide] here?
**A.** The value was 4-5 log.

— US11590472B2, “Methods and compositions for on-demand release of ClO2 gas from UV-activated chlorite ion” (Wisconsin Alumni Research Foundation, priority 2015, dated 2023)
